Results on 34 compounds are retold here after ChEMBL document CHEMBL1146955, “A novel series of arylsulfonylthiophene-2-carboxamidine inhibitors of the complement component C1s” (Bioorg Med Chem Lett, 2006).

One may read the Ki as a dissociation constant, usually derived from enzyme kinetics or from competition with a known ligand. Higher therefore signals lower affinity.

For assay [1], the target named is T1, Complement C1s subcomponent (Homo sapiens, UniProt P09871).
T1 sequence (P09871 whole entry): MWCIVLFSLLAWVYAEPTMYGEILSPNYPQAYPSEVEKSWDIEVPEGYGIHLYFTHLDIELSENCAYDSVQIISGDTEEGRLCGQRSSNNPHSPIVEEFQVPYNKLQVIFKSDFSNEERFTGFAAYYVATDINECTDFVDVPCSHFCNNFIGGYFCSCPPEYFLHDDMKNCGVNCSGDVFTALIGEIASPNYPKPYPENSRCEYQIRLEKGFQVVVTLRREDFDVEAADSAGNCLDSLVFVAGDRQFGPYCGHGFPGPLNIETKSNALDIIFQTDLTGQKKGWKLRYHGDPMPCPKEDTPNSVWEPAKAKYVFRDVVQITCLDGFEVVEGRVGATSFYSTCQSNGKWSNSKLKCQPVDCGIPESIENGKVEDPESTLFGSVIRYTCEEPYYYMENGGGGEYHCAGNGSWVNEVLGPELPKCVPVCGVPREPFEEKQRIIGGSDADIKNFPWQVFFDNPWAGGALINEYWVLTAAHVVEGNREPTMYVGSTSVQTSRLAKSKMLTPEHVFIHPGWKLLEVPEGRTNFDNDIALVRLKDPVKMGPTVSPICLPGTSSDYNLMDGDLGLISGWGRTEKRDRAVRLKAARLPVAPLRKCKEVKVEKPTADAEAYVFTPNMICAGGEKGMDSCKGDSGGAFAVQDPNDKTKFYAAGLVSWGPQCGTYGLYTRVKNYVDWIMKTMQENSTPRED
The assay can be described thus: Inhibition of C1S.

The target in assay [2] is Urokinase-type plasminogen activator (Homo sapiens, UniProt P00749). As to the kind of experiment: Inhibition of uPA.
In assay [3] the target is Tissue-type plasminogen activator (Homo sapiens, UniProt P00750). The assay can be described thus: Inhibition of tPA.
For assay [4], the target named is Coagulation factor X (Homo sapiens, UniProt P00742). The assay can be described thus: Inhibition of F10a.
The target in assay [5] is Prothrombin (Homo sapiens, UniProt P00734). As to the kind of experiment: Inhibition of thrombin.
Assay [6] has as its target Plasminogen (Homo sapiens, UniProt P00747). As to the kind of experiment: Inhibition of plasmin.
Assay [7] addresses Trypsin (Homo sapiens, UniProt P07477+P07478+P35030). As to the kind of experiment: Inhibition of trypsin. It is filed as protein assay.

Chain of Tissue-type plasminogen activator (P00750 whole entry): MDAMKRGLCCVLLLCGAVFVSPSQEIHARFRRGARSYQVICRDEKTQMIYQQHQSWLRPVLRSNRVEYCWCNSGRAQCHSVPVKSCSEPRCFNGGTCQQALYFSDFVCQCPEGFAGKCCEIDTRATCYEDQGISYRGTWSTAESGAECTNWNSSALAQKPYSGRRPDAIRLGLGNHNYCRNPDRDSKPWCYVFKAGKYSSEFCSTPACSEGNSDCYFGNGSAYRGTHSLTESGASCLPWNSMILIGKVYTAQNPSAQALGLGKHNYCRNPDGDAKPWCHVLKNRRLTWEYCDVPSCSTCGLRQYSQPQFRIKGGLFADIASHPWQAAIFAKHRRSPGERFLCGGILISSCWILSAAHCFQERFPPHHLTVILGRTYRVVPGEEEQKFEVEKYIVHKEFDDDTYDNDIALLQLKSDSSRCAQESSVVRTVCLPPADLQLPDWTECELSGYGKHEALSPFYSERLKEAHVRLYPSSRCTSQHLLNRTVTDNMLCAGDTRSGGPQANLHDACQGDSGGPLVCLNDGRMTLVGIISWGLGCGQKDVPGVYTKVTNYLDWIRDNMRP
Chain of Plasminogen (P00747 97-580 limits assumed): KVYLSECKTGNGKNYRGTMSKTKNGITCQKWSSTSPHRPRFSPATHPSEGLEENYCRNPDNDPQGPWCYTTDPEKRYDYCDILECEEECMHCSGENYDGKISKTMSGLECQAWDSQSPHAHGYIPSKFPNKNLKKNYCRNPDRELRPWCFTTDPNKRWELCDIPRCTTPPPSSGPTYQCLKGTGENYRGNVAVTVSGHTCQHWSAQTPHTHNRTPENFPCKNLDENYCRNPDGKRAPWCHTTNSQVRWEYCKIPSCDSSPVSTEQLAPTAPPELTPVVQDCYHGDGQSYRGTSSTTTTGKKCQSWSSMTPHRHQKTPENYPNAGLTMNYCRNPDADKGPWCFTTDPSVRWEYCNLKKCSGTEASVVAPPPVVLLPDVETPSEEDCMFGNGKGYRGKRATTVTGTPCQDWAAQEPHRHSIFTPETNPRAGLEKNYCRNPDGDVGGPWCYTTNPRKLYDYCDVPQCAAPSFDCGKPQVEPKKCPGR
Chain of Plasminogen (P00747 581-810 limits assumed): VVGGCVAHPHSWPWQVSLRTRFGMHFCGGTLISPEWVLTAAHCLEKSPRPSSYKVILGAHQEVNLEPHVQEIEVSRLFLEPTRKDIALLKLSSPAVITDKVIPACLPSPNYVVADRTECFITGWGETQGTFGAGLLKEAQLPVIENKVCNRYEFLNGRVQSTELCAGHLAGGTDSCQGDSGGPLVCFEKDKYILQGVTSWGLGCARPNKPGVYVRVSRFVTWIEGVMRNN
Chain of Coagulation factor X (P00742 41-179 limits assumed): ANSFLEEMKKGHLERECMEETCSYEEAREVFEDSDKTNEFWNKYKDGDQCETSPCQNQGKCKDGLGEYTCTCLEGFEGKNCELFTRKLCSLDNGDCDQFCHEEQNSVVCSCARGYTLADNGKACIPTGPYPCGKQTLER
Chain of Coagulation factor X (P00742 235-488 limits assumed): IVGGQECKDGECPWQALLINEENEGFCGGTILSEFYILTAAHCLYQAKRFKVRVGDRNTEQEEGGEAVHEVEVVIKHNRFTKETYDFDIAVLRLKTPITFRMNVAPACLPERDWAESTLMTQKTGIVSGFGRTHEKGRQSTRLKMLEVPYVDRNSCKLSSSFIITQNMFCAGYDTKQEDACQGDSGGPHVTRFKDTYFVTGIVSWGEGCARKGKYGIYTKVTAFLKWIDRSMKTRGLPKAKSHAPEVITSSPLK

In turn, `CSc1sc(C(=N)N)cc1S(=O)(=O)c1cc(Br)c2c(c1)ncn2-c1ccccc1` yielded a Ki in assay [1] of 310 nM.

For `CSc1sc(C(=N)N)cc1S(=O)(=O)c1ccc2c(c1)ncn2Cc1ccccc1`, the affinity in assay [1] corresponds to a Ki of 400 nM.

In turn, `CSc1sc(C(=N)N)cc1S(=O)(=O)c1ccc2ncn(Cc3ccccc3)c2c1` came in with a Ki in assay [1] of 420 nM. This Ki and that of the compound before are within 1.5-fold of each other.

Take `CSc1sc(C(=N)N)cc1S(=O)(=O)c1cc(Br)c2ncn(-c3ccccc3)c2c1`: in assay [1], the inhibition constant (Ki) worked out at 180 nM.

Take `CSc1sc(C(=N)N)cc1S(=O)(=O)c1cc(Br)c2c(c1)ncn2[C@H](C)c1ccccc1`: affinity in assay [1] was put at a Ki of 380 nM.

Consider `CSc1sc(C(=N)N)cc1S(=O)(=O)c1cc(Cl)c2ncn(Cc3c(F)cccc3F)c2c1`, for which, in assay [1], the Ki turned out to be 100 nM.

In assay [1], `CSc1sc(C(=N)N)cc1S(=O)(=O)c1ccccc1` gave a Ki of 750 nM.

Consider `CSc1sc(C(=N)N)cc1S(=O)(=O)c1cc(Br)c2c(c1)ncn2[C@@H](C)c1ccccc1`, for which the inhibition constant (Ki) in assay [1] was determined as 330 nM.

The compound `CSc1sc(C(=N)N)cc1S(=O)(=O)c1cc(Br)c2ncn(C)c2c1` displayed an inhibitory constant (Ki) in assay [1] of 330 nM. This lies in the sub-micromolar range.

In assay [1], `CSc1sc(C(=N)N)cc1S(=O)(=O)c1cc(Br)c2nc[nH]c2c1` gave a Ki of 400 nM.

`CSc1sc(C(=N)N)cc1S(=O)(=O)c1cc(Br)c2ncn(Cc3c(F)cccc3F)c2c1`: the affinity in assay [1], expressed as Ki, was 170 nM.

Take `CSc1sc(C(=N)N)cc1S(=O)(=O)c1cc(Br)c2c(c1)ncn2Cc1cc(F)ccc1F`: the Ki in assay [1] is 10 nM; in assay [2] it was greater than 10000 nM; in assay [3], greater than 10000 nM; in assay [4], 11400 nM; in assay [5], greater than 15000 nM; in assay [6], greater than 13000 nM. The compound also gave a Ki in assay [7] of 1400 nM.

In assay [1], `CSc1sc(C(=N)N)cc1S(=O)(=O)c1cc(Br)c2c(c1)ncn2CC=C(C)C` yielded a Ki of 50 nM.

Compound `CSc1sc(C(=N)N)cc1S(=O)(=O)c1ccccn1` registered a Ki in assay [1] of 2290 nM.

The compound `CSc1sc(C(=N)N)cc1S(=O)(=O)c1cc(Br)c2c(c1)ncn2Cc1c(Cl)cccc1Cl` showed an inhibition constant (Ki) in assay [1] of 20 nM.

For `CSc1sc(C(=N)N)cc1S(=O)(=O)c1cc(Br)c2c(c1)ncn2Cc1cc([N+](=O)[O-])ccc1F`, the Ki in assay [1] came to 30 nM.

`CSc1sc(C(=N)N)cc1S(=O)(=O)C(C)C` registered a Ki in assay [1] of 11000 nM.

The compound `C=CCn1cnc2c(Br)cc(S(=O)(=O)c3cc(C(=N)N)sc3SC)cc21` yielded a Ki in assay [1] of 210 nM. Against the preceding compound, the Ki is about 52-fold lower.

Turning to `CSc1sc(C(=N)N)cc1S(=O)(=O)c1cc(Br)c2ncn(Cc3ccccc3)c2c1`, the Ki in assay [1] amounted to 400 nM.

Turning to `CSc1sc(C(=N)N)cc1S(=O)(=O)c1nccn1C`, the affinity in assay [1] corresponds to a Ki of 1880 nM.

Compound `CSc1sc(C(=N)N)cc1S(=O)(=O)c1cc(Br)c2ncn(CC=C(C)C)c2c1` yielded a Ki in assay [1] of 200 nM.

Compound `CSc1sc(C(=N)N)cc1S(=O)(=O)c1ccc2ccccc2c1` returned a Ki in assay [1] of 410 nM.

Compound `CSc1sc(C(=N)N)cc1S(=O)(=O)c1cc(Br)c2c(c1)ncn2C` showed a Ki in assay [1] of 400 nM. This Ki and that of the compound before are within 1.5-fold of each other.

The compound `CSc1sc(C(=N)N)cc1S(=O)(=O)c1cc(Br)c2ncn(Cc3cc([N+](=O)[O-])ccc3F)c2c1` registered a Ki in assay [1] of 170 nM. Against the preceding compound, the Ki is about 2.4-fold lower.

`C=CCn1cnc2cc(S(=O)(=O)c3cc(C(=N)N)sc3SC)cc(Br)c21` showed a Ki in assay [1] of 70 nM.

In assay [1], `CSc1sc(C(=N)N)cc1S(=O)(=O)c1cc(Br)c2c(c1)ncn2Cc1c(F)cccc1F` came in with a Ki of 40 nM.

With `CSc1sc(C(=N)N)cc1S(=O)(=O)c1cc(Cl)c2c(c1)ncn2Cc1c(F)cccc1F`, the Ki in assay [1] was found to be 100 nM.

In assay [1], `CSc1sc(C(=N)N)cc1S(=O)(=O)c1ccc2c(c1)ncn2Cc1ccccn1` yielded a Ki of 580 nM.

In assay [1], `CSc1sc(C(=N)N)cc1S(=O)(=O)c1ccoc1C` yielded a Ki of 1790 nM.

The compound `CSc1sc(C(=N)N)cc1S(=O)(=O)c1cccs1` registered a Ki in assay [1] of 2240 nM.

On to `CSc1sc(C(=N)N)cc1S(=O)(=O)Cc1ccccc1`, for which, in assay [1], the inhibitory constant (Ki) worked out at 2000 nM.

For `CSc1sc(C(=N)N)cc1S(=O)(=O)c1cc(Br)c2ncn(Cc3c(Cl)cccc3Cl)c2c1`, the Ki in assay [1] came to 160 nM.

Regarding `CSc1sc(C(=N)N)cc1S(=O)(=O)c1cc(Br)c2ncn(Cc3cc(F)ccc3F)c2c1`, the Ki in assay [1] was determined as 240 nM.

For the compound `CSc1sc(C(=N)N)cc1S(=O)(=O)c1cc(Br)c2c(c1)ncn2Cc1ccccc1`, the affinity in assay [1], expressed as Ki, was 30 nM. This Ki is about 8-fold lower than that of the compound before.
